Like-named read-outs stand apart in the source and are kept apart here.
Experiments:
C57BL/6J mice [1] = experiment: Plasma insulin levels during OGTT; type: in vivo; settings: for Insulin levels at 0 min vs vehicle control group and HMS5552-40 mg/kg group: 0 min (pre-glucose); for Insulin levels at 15 min vs vehicle control group / Insulin levels at 15 min vs corresponding groups of HMS5552: 15 min post-glucose
Method: (§1) 104 C57BL/6J mice were randomly divided into 13 groups according to body weight, 8 mice per group. The first group were administered with vehicle solvent (5 mL/kg, PO) as the control group, other groups were administered with corresponding concentration of test compounds (5 mL/kg, PO). […] The oral glucose tolerance test (OGTT) was performed 1 hour after administration of test compounds. Blood glucose (BG) were measured at −60 min (pre-dose), 0 min (pre-glucose), 15 min, 30 min, 60 min and 120 min after glucose treatment. Blood samples (40 μl) were collected from tail veins at 0 min (pre-glucose), and 15 min (post-glucose) to separate plasma for insulin detection.
(§2) All data was transferred into an Excel spreadsheet. Blood glucose was expressed in mg/dL. All values were expressed as Mean±SEM. The significance of the differences between groups were evaluated by one-way ANOVA or two-way ANOVA followed by Dunnett's multiple comparisons test or Tukey's multiple comparisons test using GraphPad Prism 8. A p value of less than 0.05 is considered statistically significant.

Caco-2 cells = experiment: Bi-directional permeability test using Caco-2 cells; settings: for The average Apparent Permeability Papp A→B: 2 hours, pH 7.40
[2] = for Remaining of Test Compound (%): SIF pH about 6.80, 37° C., 2 μM
Method: Preparation of Simulated Intestinal Fluid (SIF): Dissolve 0.136 g KH2PO4 and 0.2 g pancreatin with water and make up the final volume to 20 mL. The pH of the test solution was about 6.80±0.05.
(§3) Then 200 μL of supernatant was pipetted and mixed completely again with 400 μL of cold acetonitrile containing 200 ng/mL tolbutamide (internal standard). • 7) All samples were centrifuged at 4000 rpm, 4° C. for 20 min. • 8) 60 μL of supernatant was pipetted and mixed with 180 μL of ultra-pure water, and the mixture was mixed completely for LC-MS/MS analysis.

[3] = Pharmacokinetic studies in male SD rats (IV bolus and gavage); settings: rat, in vivo
Method: Samples were placed on wet ice until centrifugation (within 30 min). […] Supernatant plasma was pipetted, then quickly frozen over dry ice and kept at −60° C. or lower temperature until LC-MS/MS analysis.

[4] = Simulated metabolic test of compounds in Human Intestine S9; type: in vitro ADME; settings: for Remaining of Test Compound (%): HIS9 0.5 mg/mL, 37° C.
Method: Preparation of Phosphate Buffer (PB): Dissolve 73.21 g K2TIPO4·3H2O (AR grade) and 10.78 g KH2PO4 (AR grade) in ultra-pure water to make the final volume to 4000 mL and the final concentration to 100 mM. The pH of the final test solution was adjusted to pH 7.40±0.10 with H3PO4/KOH.
An Apricot automation workstation was used to add 50 μL/well of HIS9 solution to the corresponding wells of all reaction plates (blank, T0, T5, T15, T30, T45, T60).
Using an Apricot automation workstation, 2 μL/well of test compound working solution was added to the corresponding wells of all 96-well reaction plates except the blank (T0, T5, T15, T30, T45, T60).
An Apricot automation workstation was used to add 48 μL/well of PB to the corresponding wells of every reaction plate (Blank, T0, T5, T15, T30, T45, T60) to start the reaction.
The reaction plates were incubated at 37° C., and timer was started. An Apricot automation workstation was used to add 300 μL/well of stop solution (cold acetonitrile containing 200 ng/mL tolbutamide (internal standard)) to the corresponding wells of each reaction plate at its appropriate end time point to terminate the reaction.
Each plate was sealed and shaken for 10 minutes. After shaking, each plate was centrifuged at 4000 rpm and 4° C. for 20 minutes. After centrifugation, 100 μL of supernatant was transferred from each reaction plate to its corresponding bioanaylsis plate, and mixed well with 300 μL ultra-pure water.

C57BL/6J mice [5] = experiment: Oral glucose tolerance test (OGTT), blood glucose; type: in vivo; settings: for AUC0-120min of blood glucose vs vehicle control group / BG values after glucose treatment vs HMS5552-40 mg/kg group / BG values after glucose treatment vs vehicle control group / AUC0-120min of blood glucose vs corresponding groups of HMS5552: OGTT; for AUC0-120min of blood glucose vs vehicle control group: all low, middle, high dose groups; for AUC0-120min of blood glucose vs vehicle control group / BG values after glucose treatment vs HMS5552-40 mg/kg group / BG values after glucose treatment vs vehicle control group / AUC0-120min of blood glucose vs corresponding groups of HMS5552 / BG values at 0 min (pre-glucose) vs vehicle control group: PO; for BG values after glucose treatment vs HMS5552-40 mg/kg group: high dose group (Compound 3 49.1, Compound 6 46.1, Compound 7 48.6 mg/kg); for BG values after glucose treatment vs vehicle control group: high dose group (HMS5552 40 mg/kg; Compound 3 49.1 mg/kg); for AUC0-120min of blood glucose vs corresponding groups of HMS5552: middle and high dose levels (equimolar to 15 and 40 mg/kg HMS5552); for BG values at 0 min (pre-glucose) vs vehicle control group: all treatment groups, 1 hour after administration
Method: as §1, §2

[6] = Stability test of compounds in Simulated Gastric Fluid (SGF); type: in vitro ADME; settings: for Stability in SGF (in words): 24 hours; for Remaining of Test Compound (%): SGF pH about 1.20, 37° C., 2 μM
Method: The pH of the test solution was about 1.20±0.05.
as §3

[7] = high dose (Compound 3 49.1, Compound 6 46.1, Compound 7 48.6 mg/kg)
[8] = middle dose (Compound 3 18.4, Compound 7 18.2 mg/kg)
[9] = Caco-2, Compound 3 concentration 2.00 μM
[10] = Caco-2, Compound 3 concentration 10.0 μM
[11] = Caco-2, Compound 3 concentration 30.0 μM
[12] = high dose (Compound 6 46.1, Compound 7 48.6 mg/kg)

Compound | Insulin levels at 0 min vs vehicle control group and HMS5552-40 mg/kg group (C57BL/6J mice [1]; [7]) | Insulin levels at 15 min vs vehicle control group (C57BL/6J mice [1]; [7]) | Insulin levels at 15 min vs vehicle control group (C57BL/6J mice [1]; [8]) | Degradation in SIF (in words) [2] | Metabolism after intravenous injection (in words) [3] | Metabolism in human intestinal S9 (in words) ([4]; HIS9) | Remaining of Test Compound (%) ([4]; time point 5 min) | Remaining of Test Compound (%) ([4]; time point 15 min) | Remaining of Test Compound (%) ([4]; time point 30 min) | Remaining of Test Compound (%) ([4]; time point 45 min) | Remaining of Test Compound (%) ([4]; time point 60 min) | Insulin secretion and glucose-lowering effect as compared to HMS5552 (in words) (C57BL/6J mice [5]) | AUC0-120min of blood glucose vs vehicle control group (C57BL/6J mice [5]) | BG values after glucose treatment vs HMS5552-40 mg/kg group (C57BL/6J mice [5]) | BG values after glucose treatment vs vehicle control group (C57BL/6J mice [5]) | AUC0-120min of blood glucose vs corresponding groups of HMS5552 (C57BL/6J mice [5]) | BG values at 0 min (pre-glucose) vs vehicle control group (C57BL/6J mice [5]) | Stability in SGF (in words) [6] | Insulin levels at 15 min vs corresponding groups of HMS5552 (C57BL/6J mice [1]; [12]) | other results
CC(C)C[C@@H](C(=O)Nc1ccn(C[C@@H](O)COC(=O)c2cccnc2)n1)N1CC(Oc2ccccc2Cl)=CC1=O [Compound 3] | significantly higher than the vehicle control group and HMS5552-40 mg/kg group at 0 min | significantly higher than the vehicle control group at 15 min | significantly higher than the vehicle control group at 15 min | extensively degraded in SIF | metabolized very rapidly in rats by intravenous injection | well metabolized in human intestinal S9 | 0 | 0 | 0 | 0 | 0 | increased insulin secretion and greater glucose-lowering effect as compared to HMS5552 | significantly lower than the vehicle control group, with dose-response relationship | significantly lower than HMS5552-40 mg/kg group at 30 min, 60 min, and 120 min | significantly lower than the vehicle control group at 15 min, 30 min, 60 min, and 120 min | significantly lower than the corresponding groups of HMS5552 (P<0.01) | overall lower than the vehicle control group, with dose-response relationship | stable in SGF for 24 hours |  | Insulin levels at 15 min vs corresponding groups of HMS5552 (C57BL/6J mice [1]; middle dose (Compound 3 18.4 mg/kg)): significantly higher than the corresponding groups of HMS5552 at 15 min; Average Recovery Rate (%) A→B (Caco-2 cells; [9]): 52.9%; Average Recovery Rate (%) B→A (Caco-2 cells; [9]): 87.1%; The average Apparent Permeability Papp A→B (Caco-2 cells; [9]): 0.02977 10^−6 cm/s; Average Recovery Rate (%) A→B (Caco-2 cells; [10]): 37.5%; Average Recovery Rate (%) B→A (Caco-2 cells; [10]): 81.6%; The average Apparent Permeability Papp A→B (Caco-2 cells; [10]): 0.03187 10^−6 cm/s; Average Recovery Rate (%) B→A (Caco-2 cells; [11]): 82.2%; The average Apparent Permeability Papp A→B (Caco-2 cells; [11]): 0.04322 10^−6 cm/s; clearance ([3]; male SD rats, IV bolus 10 mg/kg, analyte prodrug): 290 mL/min/kg; Tmax ([3]; male SD rats, PO 30 mg/kg, analyte prodrug, read-out: Tmax (median)): 15 min; Time within which completely metabolized and converted into parent drug HMS5552 ([4]; HIS9): ≤ 5 min
CC(C)C[C@@H](C(=O)Nc1ccn(C[C@@H](O)COC(=O)[C@H](C)N)n1)N1CC(Oc2ccccc2Cl)=CC1=O [Compound 6] | significantly higher than the vehicle control group and HMS5552-40 mg/kg group at 0 min | significantly higher than the vehicle control group at 15 min |  |  |  |  |  |  |  |  |  | increased insulin secretion and greater glucose-lowering effect as compared to HMS5552 | significantly lower than the vehicle control group, with dose-response relationship | significantly lower than HMS5552-40 mg/kg group at 15 min, 30 min, 60 min, and 120 min |  | significantly lower than the corresponding groups of HMS5552 (P<0.01) | overall lower than the vehicle control group, with dose-response relationship |  | significantly higher than the corresponding groups of HMS5552 at 15 min | 
CC(C)C[C@@H](C(=O)Nc1ccn(C[C@@H](O)COC(=O)[C@@H](N)C(C)C)n1)N1CC(Oc2ccccc2Cl)=CC1=O [Compound 7] | significantly higher than the vehicle control group and HMS5552-40 mg/kg group at 0 min | significantly higher than the vehicle control group at 15 min | significantly higher than the vehicle control group at 15 min | extensively degraded in SIF | metabolized very rapidly in rats by intravenous injection | well metabolized in human intestinal S9 | 30.7 | 18.8 | 7.2 | 3.9 | 2.7 | increased insulin secretion and greater glucose-lowering effect as compared to HMS5552 | significantly lower than the vehicle control group, with dose-response relationship | significantly lower than HMS5552-40 mg/kg group at 15 min, 30 min, 60 min, and 120 min |  | significantly lower than the corresponding groups of HMS5552 (P<0.01) | overall lower than the vehicle control group, with dose-response relationship | stable in SGF for 24 hours | significantly higher than the corresponding groups of HMS5552 at 15 min | Remaining of Test Compound (%) ([2]; time point 0 hr): 100.00%; Remaining of Test Compound (%) ([2]; time point 1 hr): 25.13%; Remaining of Test Compound (%) ([2]; time point 2 hr): 3.50%; Remaining of Test Compound (%) ([2]; time point 6 hr): 4.88%; Remaining of Test Compound (%) ([2]; time point 24 hr): 0.00%; Exposures (Cmax, Cmax ratio, AUC, AUC ratio) when administered orally vs parent drug (in words) ([3]; male, SD, po): comparable to the parent drug HIMS5552; Remaining of Test Compound (%) ([4]; time point 0 min): 100%; Remaining of Test Compound (%) ([6]; time point 0 hr): 100.00%; Remaining of Test Compound (%) ([6]; time point 1 hr): 103.14%; Remaining of Test Compound (%) ([6]; time point 2 hr): 104.44%; Remaining of Test Compound (%) ([6]; time point 6 hr): 102.68%; Remaining of Test Compound (%) ([6]; time point 24 hr): 108.07%
CC(C)C[C@@H](C(=O)Nc1ccn(C[C@@H](O)CO)n1)N1CC(Oc2ccccc2Cl)=CC1=O [HMS5552, (S)-2-[4-(2-chloro-phenoxy)-2-oxo-2,5-dihydro-pyrrol-1-yl]-4-methyl-pentanoic acid [1-((R)-2,3-dihydroxy-propyl)-1H-pyrazol-3-yl]-amide, reference compound] |  |  |  |  |  |  |  |  |  |  |  |  | significantly lower than the vehicle control group, with dose-response relationship |  | significantly lower than the vehicle control group at 30 min, 60 min and 120 min |  | overall lower than the vehicle control group, with dose-response relationship |  |  | Insulin levels vs vehicle control group (C57BL/6J mice [1]; HMS5552 groups, 0 min and 15 min): slightly higher than the vehicle control group at 0 min and 15 min, without significant difference

From patent US12054477B2, “Prodrug of pyrrolidone derivatives as glucokinase activator” (HUA MEDICINE (SHANGHAI) LTD., priority 2021, dated 2024)
